The test system of assay [1] is isolated guinea pig ileum, contractions induced by barium chloride. The experiment in a line: Antagonist action on contractions induced by barium chloride, isolated guinea pig ileum. To be noted: barium chloride 2×10^-4 M; contact time one minute; 37° C.; read-out: Antagonist to different agents (IC50), BaCl2. On the procedure:
(§1) The interaction of the compounds with different receptors was assessed on isolated guinea pig ileum according to the following method.
(§2) Guinea pig ileum segments measuring 2.5-3 cm were washed and immediately suspended in a bath containing 10 ml of Tyrode's solution at 37° C. aerated with a mixture of oxygen (95%) and carbon dioxide (5%). After a stabilization period of at least 30 minutes, the contractions were recorded, maintaining the preparation under constant tension of 1 g using a gauge connected to a polygraph. The agonist action was assessed by leaving the compound in contact with the isolated tissue for a period necessary for expressing the maximal contraction; the preparation was then washed with Tyrode's solution. The next dose was added to the bath only after the preparation had returned to its base line. As a reference product, arecoline was employed. The antagonist action was assessed on contractions induced by acetyl choline (1×10^-6 M), histamine (1×10^-5 M) and barium chloride (2×10^-4 M). Atropine, diphenhydramine and papaverine were emplohyed as reference products. The contact time before adding the agonist was one minute.
(§3) For each compound, the dose-response curves are obtained with 4 to 6 different concentrations and 3 to 5 independent tests. The agonist activity is expressed by pD2 (negative logarithm of the dose which produces 50% of maximum effect). The antagonist activity is expressed by IC50 (concentration inhibiting 50% of the maximal response).

The next assay has as its target adrenoreceptors alpha1. As to the kind of experiment: Binding to other brain receptors: adrenoreceptor alpha1. To be noted: negligible affinity. An excerpt: (§4) 1) Binding to different brain receptors.
The target of another assay is dopamine receptors. As to the kind of experiment: Binding to other brain receptors: dopamine. Particulars: negligible affinity.
Text: as §4

The test system of assay [2] is isolated guinea pig ileum, contractions induced by acetyl choline. As to the kind of experiment: Antagonist action on contractions induced by acetyl choline, isolated guinea pig ileum. To be noted: acetyl choline 1×10^-6 M; contact time one minute; 37° C.; read-out: Antagonist to different agents (IC50), ACh. On the procedure:
as §1, §2, §3

The target in a further assay is adrenoreceptors alpha2. As to the kind of experiment: Binding to other brain receptors: adrenoreceptor alpha2. To be noted: negligible affinity.
Text: as §4

The subject of assay [3] is cholinomimetic effects induced by carbachol. The experiment in a line: In vivo anticholinergic action: inhibition of cholinomimetic effects induced by carbachol in mice. Set-up: species or system CD1 male mice. To be noted: Mus musculus, ip, mice, i.p. 30 minutes before carbachol 1 mg/kg s.c.; for ED (1 degree C): rectal temperature, read-out: Body temperature: dose increasing by 1° C. the hypothermic effect induced by the cholinergic agent. On the procedure:
The anticholinergic activity of the compounds was determined by assessing the capacity to inhibit the cholinomimetic effects induced by carbachol. Atropine sulphate was employed as a reference product.
CD1 male mice weighing 25 to 30 g were used. They were distributed in groups of 6 animals and treated intraperitoneally with scalar doses of the products or 0.25% Methocel for the controls. 12 animals were used for each dose. 30 minutes after administration of the compounds, the mice were injected subcutaneously with 1 mg/kg of carbachol dissolved in physiological saline.
Each animal was examined 30 minutes after the injection of carbachol to assess the presence of diarrhoea, salivation and eye watering; in addition, the body temperature was measured by means of a thermocouple inserted 1.5 cm into the rectum.
For each compound, we have determined and recorded in the following table the dose capable of inhibiting the appearance of the carbachol-induced cholinometric symptoms in 50% of the animals, and of increasing by 1° C. the hypothermic effect induced by the cholinergic agent.

Assay [4] relates to isolated guinea pig ileum. The experiment in a line: Agonist action on isolated guinea pig ileum. To be noted: negative logarithm of the dose which produces 50% of maximum effect. On the procedure: as §1, §2, §3
Setting [5] is: read-out: Dose inhibiting carbachol-induced diarrhoea in 50% of the animals.
Where [6] appears, read: read-out: Dose inhibiting carbachol-induced eye watering in 50% of the animals.
Where [7] appears, read: read-out: Dose inhibiting carbachol-induced salivation in 50% of the animals.

pIC50: −log10 of the molar value. Read-outs that look alike come from different tables or passages of the source. Where only a bound is given, the exact number is not on record here.

With `CCN(CC)c1ccc(S(=O)(=O)N2CCCCC2=O)cc1` [Example 2, 1-[4-(Diethylamino)benzenesulphonyl]-2-piperidinone], the pIC50 (in general, the negative decadic logarithm of the IC50, by convention in mol/L) in assay [1] was under 5.00; on adrenoreceptors alpha1 it was 5.00 to 5.30; on dopamine receptors, 5.00 to 5.30; in assay [2], 6.03; on adrenoreceptors alpha2, 5.00 to 5.30. Also, the figures for the ED50 in assay [3] (setting [5]), in assay [3] (setting [6]) and in assay [3] (setting [7]) were 5 mg/kg, over 50 mg/kg and over 50 mg/kg, respectively. The ED (1 degree C) in assay [3] is over 50 mg/kg. Further, the “Agonist action pD2” value in assay [4] was under 5.

As to `O=C1CCCCN1S(=O)(=O)c1ccc(N2CCCCC2)cc1` [Example 4, 1-[4-(1-Piperidinyl)benzenesulphonyl] -2-piperidinone], the negative-log IC50 (pIC50) in assay [1] was under 5.00; on adrenoreceptors alpha1, 5.00 to 5.30; on dopamine receptors, 5.00 to 5.30; in assay [2], 5.82; at adrenoreceptors alpha2 it was 5.00 to 5.30. Besides, the ED50 was 6 mg/kg in assay [3] (setting [5]), over 50 mg/kg in assay [3] (setting [6]) and over 50 mg/kg in assay [3] (setting [7]). Besides, in assay [3], the ED (1 degree C) is over 50 mg/kg. For the same compound, the “Agonist action pD2” value in assay [4] was under 5.

On to `O=C1CCCCN1S(=O)(=O)c1ccc(N2CCCCCC2)cc1` [Example 5, 1-[4-(1-Hexahydroazepinyl)benzenesulphonyl]-2-piperidinone], for which the pIC50 in assay [1] is under 5.00; at adrenoreceptors alpha1, 5.00 to 5.30; on dopamine receptors, 5.00 to 5.30; in assay [2] it was 6.57; at adrenoreceptors alpha2, 5.00 to 5.30. Also, the ED50 in assay [3] (setting [5]) is 2 mg/kg; in assay [3] (setting [6]) it was over 50 mg/kg. Further, the ED (1 degree C) in assay [3] was determined as 50 mg/kg. The “Agonist action pD2” value in assay [4] is under 5.

The values above are taken from patent US5041436A, “1-arylsulphonyl-2-piperidinone derivatives, process and intermediates for the preparation thereof, their application as antispasmodics and compositions containing them” (Roussel Uclaf, priority 1989, dated 1991).
